This passage reports EC50 results from patent US12612412B2, “Antiviral heterocyclic compounds” (Enanta Pharmaceuticals, Inc., priority 2021, dated 2026).

SMILES strings stand for the structures. Read-outs that look alike come from different tables or passages of the source. Where only a bound is given, the exact number is not on record here.

Assay [1] deals with genotype A, "Long" strain RSV. The assay is described as follows: RSV-A assay (CPE protection in Hep-2 cells, ATPlite readout). To be noted: genotype A “Long” strain RSV, MOI 0.1, CPE protection, read-out: Human RSV-A (“Long”). Format: cell-based, Human respiratory syncytial virus (HRSV). In a few lines: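 In this cytopathic-effect protection format, infected Hep-2 cultures (MOI 0.1) are exposed to compound for 5 days. Surviving cell ATP is quantified with ATPlite, and EC50 is determined.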

Assay [2] deals with recombinant HMPV CAN97-83 containing eGFP (MPV-GFP1). The assay can be described thus: HMPV antiviral assay Method-A (MPV-GFP1 eGFP fluorescence in Vero E6 cells). To be noted: read-out: HMPV EC50. Format: cell-based, Human metapneumovirus (HMPV). The procedure: HMPV antiviral activity was evaluated using a recombinant version of HMPV CAN97-83 engineered to contain the coding sequence for enhanced green fluorescence protein (eGFP) in the 3′ end of the virus genome (MPV-GFP1, ViraTree). Vero E6 cells ([…]) were seeded at a density of 12,000 cells/100 μL/well into 96-well cell plates one day prior to the assay. On the day of screening, the cell culture medium was aspirated from the wells and cells were washed twice with serum-free Eagle's Modified Essential Medium (EMEM, ATCC #) containing 1% penicillin-streptomycin (Invitrogen) (SF-EMEM). Cell washes were performed by dispensing 100 μL SF-EMEM per well and immediately aspirating the wash medium from the well. Following the second wash step, serum-free OptiMEM (Invitrogen, Cat No.) (SF-OptiMEM) containing 0.5 μg/mL TPCK-Trypsin (VENDOR) and 1% penicillin-streptomycin was added to the cells at 50 μL/well. Compounds were added into the 96-well plates using a JANUS automated liquid handling system (VENDOR). Compounds were initially diluted 1:50 into an intermediate 96-well plate containing SF-OptiMEM prior to transfer to the assay plate (25 μL/well). Each of the test compounds were tested in duplicate wells at final concentrations starting from 8 μM or 2 μM using ½ stepwise dilutions for a total of 8 points. Virus infection was performed by preparing a working stock of MPV-GFP1 at a multiplicity of infection (MOI) equal to 0.05/25 μL and aliquoting 25 μL of virus inoculum to the compound and positive control wells. SF-OptiMEM was added (25 μL/well) to the appropriate wells to serve as a virus-free negative control for the assay. The final DMSO concentration of all wells is 0.5%. Plates were incubated at 32° C., 5% CO2 for 5 days.
After 5 days incubation, eGFP fluorescence intensity was measured at (X) […] wavelength using a Spectramax i3× plate reader (VENDOR). Percent viral inhibition was calculated using the following equation: y=[…]
Where XQ is the fluorescence intensity measured in a well containing recombinant MPV-GFP1-infected, compound-treated cells and XP is the average fluorescence intensity measured in the wells containing untreated cells infected with recombinant virus. EC50 values were then calculated by non-linear regression using a four parameter curve logistic equation. The curve fit model employed was XLFit Dose Response One Site Model 200: y=(A+(B/(1+((x/C)^D))))
Where A is the minimum y value, B is the maximum y value, C is the log EC50 value, and D is the slope factor. […] EC50 ranges are as follows: A<0.5 μM; B>0.5 μM.

Where [3] appears, read: human respiratory syncytial virus.
[4] abbreviates: human metapneumovirus, Vero C1008, 120 h.

For the molecule `COc1cc(C(=O)NC[C@](O)(c2cc3c(c(-c4ccc(F)cc4)n2)OC[C@]3(C)C(N)=O)C(F)(F)F)cc2cc(C)c(CO)nc12` [Example 4], the EC50 is below 0.2 µM in assay [1] (setting [3]) and below 0.5 µM in assay [2] (setting [4]).

On to `Cc1cnc2c(Cl)cc(C(=O)NC[C@](O)(c3cc4c(c(-c5ccc(F)cc5)n3)OC[C@]4(C)C(N)=O)C(F)(F)F)cc2c1` [Example 70], for which the results for the EC50 in assay [1] (setting [3]) and in assay [2] (setting [4]) were below 0.2 µM and below 0.5 µM, respectively.

As for `COc1cc(C(=O)NC[C@](O)(c2cc3c(c(-c4ccc(F)cc4)n2)OC[C@@]3(C(N)=O)C2CC2)C(F)(F)F)cc2cccnc12` [Example 268], the EC50 is below 0.2 µM in assay [1] (setting [3]) and above 0.5 µM in assay [2] (setting [4]).

Regarding `COc1cc(C(=O)NC[C@](O)(c2cc3c(c(-c4ccc(F)cc4)n2)OC[C@]3(C)C(N)=O)C(F)(F)F)cc2cc[nH]c12` [Example 200], the EC50 in assay [1] (setting [3]) was below 0.2 µM; in assay [2] (setting [4]), above 0.5 µM.

For `C[C@]1(C(N)=O)COc2c1cc([C@@](O)(CNC(=O)c1cc(OC3CC3)c3nc(C4CC4)sc3c1)C(F)(F)F)nc2-c1ccc(F)cc1` [Example 96], the EC50 in assay [1] (setting [3]) was below 0.2 µM; in assay [2] (setting [4]), below 0.5 µM.

As to `C[C@]1(C(N)=O)COc2c1cc([C@@](O)(CNC(=O)c1ccc3nc(C4CC4)cn3c1)C(F)(F)F)nc2-c1ccc(F)cc1` [Example 51], the figures for the EC50 in assay [1] (setting [3]) and in assay [2] (setting [4]) were below 0.2 µM and below 0.5 µM, respectively.

Regarding `COc1cc(C(=O)NC[C@](O)(c2cc3c(c(-c4ccc(Cl)cc4)n2)OC[C@]3(C)C(N)=O)C(F)(F)F)cc2cc(C(F)(F)F)cnc12` [Example 314], the results for the EC50 in assay [1] (setting [3]) and in assay [2] (setting [4]) were below 0.2 µM and below 0.5 µM, respectively.

`COc1ccc(C(=O)NC[C@](O)(c2cc3c(c(-c4ccc(F)cc4)n2)OC[C@]3(C)C(N)=O)C(F)(F)F)cc1Nc1nccnn1` [Example 112]: the EC50 in assay [1] (setting [3]) is below 0.2 µM; in assay [2] (setting [4]), above 0.5 µM.

Regarding `[2H]C([2H])([2H])c1cc2cc(C(=O)NC[C@](O)(c3cc4c(c(-c5ccc(F)cc5)n3)OC[C@]4(C)C(N)=O)C(F)(F)F)cc(OC)c2nc1C` [Example 143], the EC50 in assay [1] (setting [3]) is below 0.2 µM; in assay [2] (setting [4]) it was below 0.5 µM.

In the case of `COc1cc(C(=O)NC[C@](O)(c2cc3c(c(-c4ccc(F)cc4)n2)OC[C@]3(C)C(N)=O)C(F)(F)F)cc2cc(C(F)F)c(C)nc12` [Example 148], the EC50 in assay [1] (setting [3]) was below 0.2 µM; in assay [2] (setting [4]), below 0.5 µM.

Take `Cc1cnc2c(Nc3ccc(C4CC4)nn3)cc(C(=O)NC[C@](O)(c3cc4c(c(-c5ccc(F)cc5)n3)OC[C@]4(C)C(N)=O)C(F)(F)F)cc2c1` [Example 114]: the results for the EC50 in assay [1] (setting [3]) and in assay [2] (setting [4]) were below 0.2 µM and below 0.5 µM, respectively.

Take `C[C@]1(C(N)=O)COc2c1cc([C@@](O)(CNC(=O)c1cc(OC3CC3)c3nn(C4CC4)cc3c1)C(F)(F)F)nc2-c1ccc(F)c(Cl)c1` [Example 30]: the EC50 was below 0.2 µM in assay [1] (setting [3]) and below 0.5 µM in assay [2] (setting [4]).

For the molecule `C[C@]1(C(N)=O)COc2c1cc([C@@](O)(CNC(=O)c1cc(NC(=O)N3CCC3)c3ncc(Cl)cc3c1)C(F)(F)F)nc2-c1ccc(F)cc1` [Example 222], the EC50 is below 0.2 µM in assay [1] (setting [3]) and above 0.5 µM in assay [2] (setting [4]).

As to `C[C@]1(C(N)=O)COc2c1cc([C@@](O)(CNC(=O)c1cc(Cl)c3nc(N)oc3c1)C(F)(F)F)nc2-c1ccc(F)cc1` [Example 91], the EC50 is below 0.2 µM in assay [1] (setting [3]) and above 0.5 µM in assay [2] (setting [4]).

Regarding `C[C@]1(C(N)=O)COc2c1cc([C@@](O)(CNC(=O)c1cc(F)c3nn(C(F)F)cc3c1)C(F)(F)F)nc2-c1ccc(F)cc1` [Example 43], the EC50 in assay [1] (setting [3]) is below 0.2 µM; in assay [2] (setting [4]), below 0.5 µM.

Regarding `Cc1ccc2cc(C(=O)NC[C@](O)(c3cc4c(c(-c5ccc(F)cc5)n3)OC[C@]4(C)C(N)=O)C(F)(F)F)cc(OC(F)F)c2n1` [Example 327], the values for the EC50 in assay [1] (setting [3]) and in assay [2] (setting [4]) were below 0.2 µM and above 0.5 µM, respectively.

As to `C[C@]1(C(N)=O)COc2c1cc([C@@](O)(CNC(=O)c1cc(NC(N)=O)c3ncc(Cl)cc3c1)C(F)(F)F)nc2-c1ccc(F)cc1` [Example 224], the figures for the EC50 in assay [1] (setting [3]) and in assay [2] (setting [4]) were below 0.2 µM and above 0.5 µM, respectively.

In the case of `NC(=O)[C@@]1(C2CC2)COc2c1cc([C@@](O)(CNC(=O)c1cc(OC3CC3)c3ncccc3c1)C(F)(F)F)nc2-c1ccc(F)cc1` [Example 270], the EC50 in assay [1] (setting [3]) was below 0.2 µM; in assay [2] (setting [4]), below 0.5 µM.

As for `Cc1cnc2c(NC(=O)NC3CC3)cc(C(=O)NC[C@](O)(c3cc4c(c(-c5ccc(F)c(Cl)c5)n3)OC[C@]4(C)C(N)=O)C(F)(F)F)cc2c1` [Example 219], the EC50 was below 0.2 µM in assay [1] (setting [3]) and below 0.5 µM in assay [2] (setting [4]).

Turning to `Cc1cc2cc(C(=O)NC[C@](O)(c3cc4c(c(-c5ccc(F)cc5)n3)OC[C@]4(C)C(N)=O)C(F)(F)F)cc(O)c2nc1C` [Example 74], the EC50 in assay [1] (setting [3]) was below 0.2 µM; in assay [2] (setting [4]) it was below 0.5 µM.

Turning to `Cc1cnc2c(Nc3ccc(O)nn3)cc(C(=O)NC[C@](O)(c3cc4c(c(-c5ccc(F)cc5)n3)OC[C@]4(C)C(N)=O)C(F)(F)F)cc2c1` [Example 120], the EC50 in assay [1] (setting [3]) was below 0.2 µM; in assay [2] (setting [4]), above 0.5 µM.

For the molecule `C[C@]1(C(N)=O)COc2c1cc([C@@](O)(CNC(=O)c1cc(Cl)c3nn(C4CC4)cc3c1)C(F)(F)F)nc2-c1ccc(F)cc1` [Example 84], the EC50 was below 0.2 µM in assay [1] (setting [3]) and below 0.5 µM in assay [2] (setting [4]).

Turning to `COc1cc(C(=O)NC[C@](O)(c2cc3c(c(-c4ccc(F)cc4)n2)OC[C@]3(C)C(N)=O)C(F)(F)F)ccc1OC[C@@H](C)OP(=O)(O)O` [Example 149], the EC50 in assay [1] (setting [3]) is below 0.2 µM; in assay [2] (setting [4]), above 0.5 µM.

For the molecule `CC[C@]1(C(N)=O)COc2c1cc([C@@](O)(CNC(=O)c1cc(OC)c3nn(C(F)F)cc3c1)C(F)(F)F)nc2-c1ccc(F)cc1` [Example 234], the EC50 is below 0.2 µM in assay [1] (setting [3]) and below 0.5 µM in assay [2] (setting [4]).

Take `Cc1cnc2c(NC(=O)N3CCCC3)cc(C(=O)NC[C@](O)(c3cc4c(c(-c5ccc(F)cc5)n3)OC[C@]4(C)C(N)=O)C(F)(F)F)cc2c1` [Example 226]: the EC50 in assay [1] (setting [3]) was below 0.2 µM; in assay [2] (setting [4]), above 0.5 µM.

Turning to `COc1cc(C(=O)NC[C@](O)(c2cc3c(c(-c4ccc(F)cc4)n2)OC[C@]3(C)C(N)=O)C(F)(F)F)cn2cc(CF)nc12` [Example 62], the EC50 in assay [1] (setting [3]) is below 0.2 µM; in assay [2] (setting [4]), above 0.5 µM.

Regarding `C[C@]1(C(N)=O)COc2c1cc([C@@](O)(CNC(=O)c1cc(F)c3nc(N)sc3c1)C(F)(F)F)nc2-c1ccc(Cl)c(Cl)c1` [Example 306], the EC50 in assay [1] (setting [3]) was below 0.2 µM; in assay [2] (setting [4]) it was below 0.5 µM.

On to `C[C@]1(C(N)=O)COc2c1cc([C@@](O)(CNC(=O)c1ccc3nc(CO)sc3c1)C(F)(F)F)nc2-c1ccc(F)cc1` [Example 161], for which the EC50 is below 0.2 µM in assay [1] (setting [3]) and above 0.5 µM in assay [2] (setting [4]).

`CCc1nc2c(OC)cc(C(=O)NC[C@](O)(c3cc4c(c(-c5ccc(F)cc5)n3)OC[C@]4(C)C(N)=O)C(F)(F)F)cc2s1` [Example 16]: the EC50 was below 0.2 µM in assay [1] (setting [3]) and below 0.5 µM in assay [2] (setting [4]).

As to `CC1(C(N)=O)COc2c1cc(C(O)(CNC(=O)c1cc(OCC(F)F)n3nc(C4CC4)cc3c1)C(F)(F)F)nc2-c1ccc(F)cc1` (centres unmarked) [Example 68], the EC50 in assay [1] was below 0.2 µM; in assay [2] (Method-A, MPV-GFP1 in Vero E6 cells, eGFP fluorescence after 5 days) it was below 0.5 µM.

With `COc1cc(C(=O)NC[C@](O)(c2cc3c(c(-c4ccc(F)cc4)n2)OC[C@]3(C)C(N)=O)C(F)(F)F)cc2cc(C3CC3)nn12` [Example 92], the results for the EC50 in assay [1] (setting [3]) and in assay [2] (setting [4]) were below 0.2 µM and below 0.5 µM, respectively.

In the case of `COc1cc(C(=O)NC[C@](O)(c2cc3c(c(-c4ccc(F)cc4)n2)OC[C@]3(C)C(N)=O)C(F)(F)F)cn2cc(C(F)(F)F)nc12` [Example 49], the EC50 in assay [1] (setting [3]) is below 0.2 µM; in assay [2] (setting [4]), above 0.5 µM.

With `C[C@]1(C(N)=O)COc2c1cc([C@@](O)(CNC(=O)c1ccc3nc(NC(=O)CN)sc3c1)C(F)(F)F)nc2-c1ccc(F)cc1` [Example 152], the EC50 in assay [1] (setting [3]) was below 0.2 µM; in assay [2] (setting [4]) it was above 0.5 µM.

As for `Cc1cn2cc(C(=O)NC[C@](O)(c3cc4c(c(-c5ccc(F)cc5)n3)OC[C@]4(C)C(N)=O)C3CC3)ccc2n1` [Example 52], the EC50 is below 0.2 µM in assay [1] (setting [3]) and below 0.5 µM in assay [2] (setting [4]).
